Experimental data published in patent US20060074083A1, “Cyclic and acyclic propenones for treating CNS disorders” (MERZ PHARMA GMBH & CO. KGAA, priority 2004, published 2006).

Row | Structure (SMILES) | melting point
1 | COc1cc(/C=C/C(=O)C23CC4CC(CC(C4)C2)C3)cc(OC)c1 [Example 4, 1-Adamantan-1-yl-3-(3,5-dimethoxy-phenyl)-propenone] | 118 to 119 °C
2 | O=C(/C=C/c1cnc2ccccc2c1)C1CC1 [Example 5, 1-Cyclopropyl-3-quinolin-3-yl-propenone] | 101 to 102 °C
3 | O=C(/C=C/c1cnc2ccccc2c1)C12CC3CC(CC(C3)C1)C2 [Example 7, 1-Adamantan-1-yl-3-quinolin-3-yl-propenone] | 169 to 171 °C
4 | COc1ccc(/C=C/C(=O)C23CC4CC(CC(C4)C2)C3)cc1C [Example 10, 1-Adamantan-1-yl-3-(4-methoxy-3-methyl-phenyl)-propenone] | 138 to 140 °C
5 | O=C(/C=C/c1ccc2c(c1)OCCO2)C12CC3CC(CC(C3)C1)C2 [Example 11, 1-Adamantan-1-yl-3-(2,3-dihydrobenzo[1,4]dioxin-6-yl)-propenone] | 125 to 127 °C
